For one series, the system named is Pyrenophora teres. Briefly: Action against Pyrenophora teres (net blotch) on barley leaf segments. The format is in vivo. To be noted: foliar, 96 h, 0.02% active ingredient sprayed on barley leaf segments, assessed 4 days after inoculation, read-out: preventive fungicidal activity (inhibition). As for the experimental part:
Barley leaf segments were placed on agar in multiwell plates (24-well format) and sprayed with test solutions (0.02% active ingredient). After drying, the leaf disks were inoculated with a spore suspension of the fungus. After appropriate incubation the activity of a compound was assessed 4 days after inoculation as preventive fungicidal activity.

The subject of series [1] is Erysiphe graminis f.sp. tritici. Briefly: Action against Erysiphe graminis f.sp. tritici (wheat powdery mildew), wheat leaf segments. The format is in vivo. Particulars: Blumeria graminis, foliar, 168 h; 0.02% active ingredient sprayed on wheat leaf segments, assessed 7 days after inoculation; read-out: preventive fungicidal activity (inhibition). As for the experimental part:
Wheat leaf segments were placed on agar in multiwell plates (24-well format) and sprayed with test solutions (0.02% active ingredient). After drying, the leaf disks were inoculated with a spore suspension of the fungus. After appropriate incubation the activity of a compound was assessed 7 days after inoculation as preventive fungicidal activity.

Series [2] concerns Mycosphaerella arachidis (Cercospora arachidicola). Briefly: Action against Mycosphaerella arachidis (early leaf spot of groundnut) - fungal growth assay. The format is cell-based. To be noted: 0.002% active ingredient, PDB broth, 24° C., photometric after 6-7 days. As for the experimental part:
Conidia of the fungus from cryogenic storage were directly mixed into nutrient broth (PDB potato dextrose broth). After placing a (DMSO) solution of the test compounds (0.002% active ingredient) into a microtiter plate (96-well format) the nutrient broth containing the fungal spores was added. The test plates were incubated at 24° C. and the inhibition of growth was measured photometrically after 6-7 days. The activity of a compound was expressed as fungal growth inhibition (0=no growth inhibition, ratings of 80% to 99% mean good to very good inhibition, 100%=complete inhibition).

Series [3] has as its system Puccinia recondita. Briefly: Protective action against Puccinia recondita (brown rust) on wheat leaf segments. Format: in vivo. To be noted: foliar, 192 h, 0.02% active ingredient sprayed on wheat leaf segments, assessed 8 days after inoculation, read-out: preventive fungicidal activity (inhibition). The method, then:
Wheat leaf segments were placed on agar in multiwell plates (24-well format) and sprayed with test solutions (0.02% active ingredient). After drying, the leaf disks were inoculated with a spore suspension of the fungus. After appropriate incubation the activity of a compound was assessed 8 days after inoculation as preventive fungicidal activity.

The subject of a further series is Botrytis cinerea. Description: Action against Botrytis cinerea - fungal growth assay. Format: cell-based. Particulars: 0.002% active ingredient, PDB broth, 24° C., photometric after 3-4 days. As for the experimental part: (§1) Conidia of the fungus from cryogenic storage was directly mixed into nutrient broth (PDB potato dextrose broth). After placing a (DMSO) solution of the test compounds (0.002% active ingredient) into a microtiter plate (96-well format) the nutrient broth containing the fungal spores was added. The test plates were incubated at 24° C. and the inhibition of growth was measured photometrically after 3-4 days. The activity of a compound was expressed as fungal growth inhibition (0=no growth inhibition, ratings of 80% to 99% mean good to very good inhibition, 100%=complete inhibition).

Another series relates to Septoria tritici. Briefly: Action against Septoria tritici - fungal growth assay. The format is cell-based. Particulars: Zymoseptoria tritici; 0.002% active ingredient, PDB broth, 24° C., photometric after 72 hrs. The method, then: Conidia of the fungus from cryogenic storage were directly mixed into nutrient broth (PDB potato dextrose broth). After placing a (DMSO) solution of the test compounds (0.002% active ingredient) into a microtiter plate (96-well format) the nutrient broth containing the fungal spores was added. The test plates were incubated at 24° C. and the inhibition of growth was determined photometrically after 72 hrs. The activity of a compound was expressed as fungal growth inhibition (0=no growth inhibition, ratings of 80% to 99% mean good to very good inhibition, 100%=complete inhibition).

The subject of series [4] is Monographella nivalis (Fusarium nivale, Microdochium nivale). Description: Action against Monographella nivalis (snow mould) - fungal growth assay. Particulars: 0.002% active ingredient, PDB broth, 24° C., photometric after 72 hrs. The format is cell-based. As for the experimental part: Conidia of the fungus from cryogenic storage were directly mixed into nutrient broth (PDB potato dextrose broth). After placing a DMSO-solution of the test compounds (0.002% active ingredient) into a microtiter plate (96-well format) the nutrient broth containing the fungal spores was added. The test plates were incubated at 24° C. and the inhibition of growth was measured photometrically after 72 hrs (0=no growth inhibition, ratings of 80% to 99% mean good to very good inhibition, 100%=complete inhibition).

The test system of series [5] is Puccinia recondita. Description: Curative action against Puccinia recondita (brown rust) on wheat leaf segments. The format is in vivo. To be noted: foliar, 0.02% active ingredient sprayed one day after inoculation on wheat leaf segments, assessed 8 days after inoculation, read-out: curative fungicidal activity (inhibition). As for the experimental part:
Wheat leaf segments were placed on agar in multiwell plates (24-well format) and inoculated with a spore suspension of the fungus. One day after inoculation the leaf segments were sprayed with test solutions (0.02% active ingredient). After appropriate incubation the activity of a compound was assessed 8 days after inoculation as curative fungicidal activity.

A further series relates to Rhizoctonia solani. Description: Action against Rhizoctonia solani - fungal growth assay. Format: cell-based. Particulars: 0.002% active ingredient, PDB broth, 24° C., photometric after 3-4 days. As for the experimental part: as §1, with “Mycelial fragments of a newly grown liquid culture” for “Conidia”, “were” for “from cryogenic storage was”

Structures are written as SMILES. Where “and” joins values, the source holds several entries; their conditions need not be identical. Identical values can stand only once.

The term melting point denotes the temperature of the solid-liquid transition. For orientation: inhibition means the percentage by which the read-out fell short of the control.

Take `CON(C(=O)c1cn(C)nc1C(F)F)C(C)[C@@H]1C[C@H]1c1c(Cl)sc(Cl)c1Cl` (relative stereo) [Compound 1.063, trans 3-Difluoromethyl-1-methyl-1H-pyrazole-4-carboxylic acid methoxy-{1-[2-(2,4,5-trichloro-thiophen-3-yl)-cyclopropyl]-ethyl}-amide]: the melting point was 110 to 113 °C and 110 to 130 °C.
On the same count and under the same terms, as for `CON(C(=O)c1cn(C)nc1C(F)F)C(C)C1CC1c1ccc(Cl)cc1Cl` (single isomer, unassigned) [Compound 1.018A, trans-3-difluoromethyl-1-methyl-1H-pyrazole-4-carboxylic acid {1-[2-(2,4-dichlorophenyl)-cyclopropyl]-ethyl}-methoxy-amide], the figure is 133 to 135 °C; as for `CON(C(=O)c1cn(C)nc1C(F)F)C(C)C1CC1c1ccc(Cl)cc1Cl` (single isomer, unassigned) [Compound 1.018B, trans-3-difluoromethyl-1-methyl-1H-pyrazole-4-carboxylic acid {1-[2-(2,4-dichlorophenyl)-cyclopropyl]-ethyl}-methoxy-amide], 142 to 144 °C.
With `CON(C(=O)c1cn(C)nc1C(F)F)C(C)C1CC1c1ccccc1Cl` (stereo not drawn) [Compound 1.011A, trans 3-difluoromethyl-1-methyl-1H-pyrazole-4-carboxylic acid {1-[2-(2-chloro-phenyl)-cyclopropyl]-ethyl}-methoxy-amide], the inhibition at 0.02 % strength (in the series on Pyrenophora teres; in [1]; with Puccinia recondita [3]) was ≥ 80% each time. For the same compound, the inhibition at 0.002 % strength (in [2]; in the series with Botrytis cinerea; with Septoria tritici; in series [4]) was ≥ 80% in each case.
Take `CON(C(=O)c1cn(C)nc1C(F)F)C(C)C1CC1c1ccc(Cl)cc1Cl` (stereo not drawn) [Compound 1.018A, trans-3-difluoromethyl-1-methyl-1H-pyrazole-4-carboxylic acid {1-[2-(2,4-dichlorophenyl)-cyclopropyl]-ethyl}-methoxy-amide]: the inhibition at 0.02 % strength (with Pyrenophora teres; in series [1]; in the series with Puccinia recondita [3]) was ≥ 80% throughout. Also, the inhibition at 0.002 % strength (in series [2]; in the series on Botrytis cinerea; in the series with Septoria tritici; in [4]) was ≥ 80% in each case.
In the case of `CON(C(=O)c1cn(C)nc1C(F)F)C(C)C1CC1c1ccc(Cl)cc1Cl` (stereo not drawn) [Compound 1.018B, trans-3-difluoromethyl-1-methyl-1H-pyrazole-4-carboxylic acid {1-[2-(2,4-dichlorophenyl)-cyclopropyl]-ethyl}-methoxy-amide], the inhibition at 0.02 % strength in the series on Puccinia recondita [5] was ≥ 80%.
Turning to `CON(C(=O)c1cn(C)nc1C(F)F)C(C)C1CC1c1c(F)cccc1Cl` (stereo not drawn) [Compound 1.027, trans 3-difluoromethyl-1-methyl-1H-pyrazole-4-carboxylic acid{1-[2-(2-chloro-6-fluoro-phenyl)-cyclopropyl]-ethyl}-methoxy-amide], the inhibition at 0.02 % strength (in the series with Pyrenophora teres; in series [1]; in the series with Puccinia recondita [3]; with Puccinia recondita [5]) was ≥ 80% in each case. The inhibition at 0.002 % strength (in series [2]; in the series on Botrytis cinerea; with Septoria tritici; in series [4]) was ≥ 80% each time.
As for `CON(C(=O)c1cn(C)nc1C(F)F)C(C)C1CC1c1c(Cl)cccc1Cl` (stereo not drawn) [Compound 1.028, trans-3-difluoromethyl-1-methyl-1H-pyrazole-4-carboxylic acid {1-[2-(2,6-dichlorophenyl)-cyclopropyl]-ethyl}-methoxy-amide], the inhibition at 0.002 % strength (in the series with Rhizoctonia solani; in series [2]; in the series on Botrytis cinerea; in the series with Septoria tritici; in series [4]) was ≥ 80% throughout. Besides, the inhibition at 0.02 % strength (in the series with Pyrenophora teres; in [1]; in the series on Puccinia recondita [3]; with Puccinia recondita [5]) was ≥ 80% each time.
In the case of `CON(C(=O)c1cn(C)nc1C(F)F)C(C)C1CC1c1c(Cl)cc(Cl)cc1Cl` (stereo not drawn) [Compound 1.034, trans-3-difluoromethyl-1-methyl-1H-pyrazole-4-carboxylic acid {1-[2-(2,4,6-trichlorophenyl)-cyclopropyl]-ethyl}-methoxy-amide], the inhibition at 0.002 % strength (in the series with Rhizoctonia solani; in series [2]; with Botrytis cinerea; in the series on Septoria tritici; in series [4]) was ≥ 80% each time. Moreover, the inhibition at 0.02 % strength (in the series with Pyrenophora teres; in [1]; in the series on Puccinia recondita [3]; in the series with Puccinia recondita [5]) was ≥ 80% in each case.
